From US9580416B2, “Inhibitors of Bruton's tyrosine kinase” (PHARMACYCLICS LLC, priority 2014, dated 2017)

Columns and labels:
Type in all cases: biochemical
[1] = molecular target: T1, JAK3 (Homo sapiens, UniProt P52333); assay: Inhibition of a panel of kinases, in vitro HotSpot kinase assay: JAK3
T1 sequence (P52333 1-1124): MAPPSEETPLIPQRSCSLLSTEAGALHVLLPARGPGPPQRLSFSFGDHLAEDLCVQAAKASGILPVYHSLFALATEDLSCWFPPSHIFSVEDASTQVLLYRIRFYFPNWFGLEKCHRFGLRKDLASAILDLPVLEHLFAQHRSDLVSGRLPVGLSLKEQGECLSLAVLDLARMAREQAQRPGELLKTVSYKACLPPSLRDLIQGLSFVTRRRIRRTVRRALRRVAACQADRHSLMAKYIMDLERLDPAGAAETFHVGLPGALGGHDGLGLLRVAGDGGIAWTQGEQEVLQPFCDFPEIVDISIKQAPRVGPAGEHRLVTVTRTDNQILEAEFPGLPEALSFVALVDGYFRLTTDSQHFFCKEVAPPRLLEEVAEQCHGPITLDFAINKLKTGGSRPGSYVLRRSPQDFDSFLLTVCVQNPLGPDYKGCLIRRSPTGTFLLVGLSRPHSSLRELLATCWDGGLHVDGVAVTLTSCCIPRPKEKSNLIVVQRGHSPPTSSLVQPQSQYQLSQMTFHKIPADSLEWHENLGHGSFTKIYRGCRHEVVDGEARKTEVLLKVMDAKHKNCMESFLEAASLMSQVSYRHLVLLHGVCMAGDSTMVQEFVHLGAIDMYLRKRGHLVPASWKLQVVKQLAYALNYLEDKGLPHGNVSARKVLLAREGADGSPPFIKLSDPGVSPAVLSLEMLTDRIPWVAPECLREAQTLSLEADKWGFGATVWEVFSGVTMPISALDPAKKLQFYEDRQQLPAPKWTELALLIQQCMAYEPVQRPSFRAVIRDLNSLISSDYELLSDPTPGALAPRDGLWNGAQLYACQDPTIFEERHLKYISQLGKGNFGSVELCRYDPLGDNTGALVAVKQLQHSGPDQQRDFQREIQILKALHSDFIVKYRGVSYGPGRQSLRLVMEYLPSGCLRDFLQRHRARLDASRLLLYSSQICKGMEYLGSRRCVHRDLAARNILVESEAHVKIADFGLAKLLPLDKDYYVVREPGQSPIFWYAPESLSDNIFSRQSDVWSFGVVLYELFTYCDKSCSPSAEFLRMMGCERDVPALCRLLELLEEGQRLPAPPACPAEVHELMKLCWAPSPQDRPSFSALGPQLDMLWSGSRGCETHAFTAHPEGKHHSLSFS
Experimental: (§1) The degree of inhibition of a panel of kinases is determined using the in vitro HotSpot kinase assay (purified enzymes, ^33P-ATP, an appropriate substrate and 1 uM ATP).

[2] = molecular target: Btk (Homo sapiens, UniProt Q06187); assay: Btk kinase activity, TR-FRET assay; conditions: read-out: Btk (IC50)
Chain of Btk (Q06187 whole entry): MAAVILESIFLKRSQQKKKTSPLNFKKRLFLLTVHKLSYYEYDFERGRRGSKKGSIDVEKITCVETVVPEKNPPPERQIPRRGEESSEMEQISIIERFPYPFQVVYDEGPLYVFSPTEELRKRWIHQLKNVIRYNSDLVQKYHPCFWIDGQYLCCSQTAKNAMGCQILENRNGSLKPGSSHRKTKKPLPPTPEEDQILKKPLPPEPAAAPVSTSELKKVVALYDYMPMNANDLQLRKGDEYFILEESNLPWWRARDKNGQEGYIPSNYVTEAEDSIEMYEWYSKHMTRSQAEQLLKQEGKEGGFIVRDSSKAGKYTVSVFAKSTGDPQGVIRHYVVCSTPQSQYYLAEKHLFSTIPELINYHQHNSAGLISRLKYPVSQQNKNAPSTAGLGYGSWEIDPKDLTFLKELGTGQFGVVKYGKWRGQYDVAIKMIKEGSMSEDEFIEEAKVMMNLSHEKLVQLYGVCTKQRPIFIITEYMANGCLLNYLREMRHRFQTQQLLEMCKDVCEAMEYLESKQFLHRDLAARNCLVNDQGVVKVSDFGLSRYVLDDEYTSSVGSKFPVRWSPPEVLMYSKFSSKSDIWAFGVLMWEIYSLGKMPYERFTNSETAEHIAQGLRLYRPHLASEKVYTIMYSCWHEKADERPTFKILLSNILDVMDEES
Summary of the method: (§2)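 Enzyme (Btk 0.5 nM; Lck 6 nM) reacted 1 h with inhibitor, ATP at Km and biotin-peptide substrate in pH 7.4 buffer, 10% DMSO. Phosphopeptide detected by Eu-p-Tyr100 antibody plus streptavidin-APC (665/615 nm). IC50 calculated from fitted Ki(app) via ATP/Km correction plus half total enzyme.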

[3] = molecular target: Lck (Homo sapiens, UniProt P06239); assay: Lck kinase activity, TR-FRET assay; conditions: read-out: LCK (IC50)
Chain of Lck (P06239 whole entry, species assumed): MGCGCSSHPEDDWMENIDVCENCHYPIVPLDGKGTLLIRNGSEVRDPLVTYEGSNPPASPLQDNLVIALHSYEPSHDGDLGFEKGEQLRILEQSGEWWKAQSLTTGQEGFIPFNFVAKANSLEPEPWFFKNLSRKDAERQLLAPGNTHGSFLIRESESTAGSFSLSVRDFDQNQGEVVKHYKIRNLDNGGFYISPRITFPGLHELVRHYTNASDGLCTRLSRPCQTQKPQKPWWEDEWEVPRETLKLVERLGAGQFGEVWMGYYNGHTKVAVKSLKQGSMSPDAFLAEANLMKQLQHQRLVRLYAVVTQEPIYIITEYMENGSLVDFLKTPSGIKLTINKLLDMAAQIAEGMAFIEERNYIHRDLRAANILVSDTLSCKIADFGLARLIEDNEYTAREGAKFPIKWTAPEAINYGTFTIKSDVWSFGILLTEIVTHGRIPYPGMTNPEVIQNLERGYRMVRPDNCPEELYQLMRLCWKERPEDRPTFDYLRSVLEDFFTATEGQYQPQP
Summary of the method: as §2

[4] = molecular target: EGFR (Homo sapiens, UniProt P00533); assay: Inhibition of a panel of kinases, in vitro HotSpot kinase assay: EGFR
Chain of EGFR (P00533 25-1210): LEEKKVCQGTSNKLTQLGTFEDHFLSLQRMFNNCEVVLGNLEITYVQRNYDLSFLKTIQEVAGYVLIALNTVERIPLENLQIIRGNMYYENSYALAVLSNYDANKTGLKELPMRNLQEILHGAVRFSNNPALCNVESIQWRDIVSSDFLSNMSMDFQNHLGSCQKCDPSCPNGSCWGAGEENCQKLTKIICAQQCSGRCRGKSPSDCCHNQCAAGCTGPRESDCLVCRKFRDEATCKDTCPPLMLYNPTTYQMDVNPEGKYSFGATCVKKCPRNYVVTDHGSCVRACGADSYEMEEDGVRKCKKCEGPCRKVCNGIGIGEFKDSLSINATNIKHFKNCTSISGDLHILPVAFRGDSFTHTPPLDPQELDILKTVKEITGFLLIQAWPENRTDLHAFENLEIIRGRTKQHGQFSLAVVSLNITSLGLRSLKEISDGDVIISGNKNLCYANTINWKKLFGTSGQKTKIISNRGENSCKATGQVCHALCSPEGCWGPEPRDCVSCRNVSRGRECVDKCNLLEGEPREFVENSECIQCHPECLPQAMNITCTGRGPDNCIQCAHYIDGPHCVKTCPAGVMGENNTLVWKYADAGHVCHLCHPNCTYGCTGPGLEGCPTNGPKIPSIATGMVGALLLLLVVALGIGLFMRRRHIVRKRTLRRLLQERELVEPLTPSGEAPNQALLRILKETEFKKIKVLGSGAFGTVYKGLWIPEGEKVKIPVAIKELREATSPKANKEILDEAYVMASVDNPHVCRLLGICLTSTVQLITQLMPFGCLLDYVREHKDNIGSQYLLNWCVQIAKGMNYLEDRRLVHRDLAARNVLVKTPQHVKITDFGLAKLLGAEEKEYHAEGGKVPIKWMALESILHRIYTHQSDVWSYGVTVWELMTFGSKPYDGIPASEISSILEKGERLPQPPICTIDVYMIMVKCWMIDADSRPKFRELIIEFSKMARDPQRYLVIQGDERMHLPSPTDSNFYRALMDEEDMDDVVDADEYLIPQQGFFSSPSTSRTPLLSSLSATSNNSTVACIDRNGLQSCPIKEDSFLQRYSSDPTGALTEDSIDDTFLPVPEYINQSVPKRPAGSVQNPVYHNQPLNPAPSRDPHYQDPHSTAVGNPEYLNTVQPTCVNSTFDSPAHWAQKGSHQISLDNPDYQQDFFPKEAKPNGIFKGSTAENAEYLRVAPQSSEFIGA
Experimental: as §1

For `CCC(=O)N1CC[C@@H](Nc2n[nH]c3nccc(Oc4ccc(C(=O)Nc5ncc(C)s5)cc4)c23)C1` [compound 72, N-(5-methyl-1,3-thiazol-2-yl)-4-[(3-{[(3R)-1-propanoylpyrrolidin-3-yl]amino}-1H-pyrazolo[3,4-b]pyridin-4-yl)oxy]benzamide], the IC50 [1] was 1000 to 10000 nM.

For `CO[C@H]1CC[C@@H](Nc2n[nH]c3nccc(Oc4ccc(C(=O)Nc5cc(C#N)ccn5)cc4)c23)CC1` [compound 85, N-(4-cyanopyridin-2-yl)-4-[(3-{[(1S,4S)-4-methoxycyclohexyl]amino}-1H-pyrazolo[3,4-b]pyridin-4-yl)oxy]benzamide], the IC50 [2] was less than 100 nM, the IC50 [3] was 100 to 1000 nM and the IC50 [4] was 100 to 1000 nM.

For `Cc1ccnc(NC(=O)c2ccc(Oc3ccnc4[nH]nc(N[C@@H]5CCCN(C(=O)C6(C)COC6)C5)c34)cc2)c1` [compound 86, 4-[(3-{[(3R)-1-(3-methyloxetane-3-carbonyl)piperidin-3-yl]amino}-1H-pyrazolo[3,4-b]pyridin-4-yl)oxy]-N-(4-methylpyridin-2-yl)benzamide], the IC50 [2] was less than 100 nM and the IC50 [1] was greater than 10000 nM.

Work on `Cc1ccnc(NC(=O)c2ccc(Oc3ccnc4[nH]nc(N[C@@H]5CCCN(C(=O)C6(C)CCOCC6)C5)c34)cc2)c1` [compound 87, 4-[(3-{[(3R)-1-(4-methyloxane-4-carbonyl)piperidin-3-yl]amino}-1H-pyrazolo[3,4-b]pyridin-4-yl)oxy]-N-(4-methylpyridin-2-yl)benzamide] yielded an IC50 [2] of less than 100 nM, an IC50 [3] of 1000 to 10000 nM and an IC50 [4] greater than 10000 nM.

`Cc1ccnc(NC(=O)c2ccc(Oc3ccnc4[nH]nc(N[C@@H]5CCCN(C(=O)C6(C)CCC6)C5)c34)cc2)c1` [compound 88, 4-[(3-{[(3R)-1-(1-methylcyclobutanecarbonyl)piperidin-3-yl]amino}-1H-pyrazolo[3,4-b]pyridin-4-yl)oxy]-N-(4-methylpyridin-2-yl)benzamide] gave an IC50 [2] of less than 100 nM, an IC50 [3] of 1000 to 10000 nM and an IC50 [4] greater than 10000 nM.

Molecule `Cc1ccnc(NC(=O)c2ccc(Oc3ccnc4[nH]nc(N[C@@H]5CCCN(C(=O)C6(C)CCOC6)C5)c34)cc2)c1` (stereo partly drawn) [compound 89, 4-[(3-{[(3R)-1-(3-methyloxolane-3-carbonyl)piperidin-3-yl]amino}-1H-pyrazolo[3,4-b]pyridin-4-yl)oxy]-N-(4-methylpyridin-2-yl)benzamide] has an IC50 [2] of less than 100 nM, an IC50 [3] of 1000 to 10000 nM and an IC50 [4] greater than 10000 nM.

For `Cc1ccnc(NC(=O)c2ccc(Oc3ccnc4[nH]nc(N[C@@H]5CCCN(C(=O)C6COC6)C5)c34)cc2)c1` [compound 90, N-(4-methylpyridin-2-yl)-4-[(3-{[(3R)-1-(oxetan-3-carbonyl)piperidin-3-yl]amino}-1H-pyrazolo[3,4-b]pyridin-4-yl)oxy]benzamide], the IC50 [2] was less than 100 nM, the IC50 [3] was 100 to 1000 nM and the IC50 [4] was 1000 to 10000 nM.

`Cc1ccnc(NC(=O)c2ccc(Oc3ccnc4[nH]nc(N[C@@H]5CCCN(C(=O)N6CCOCC6)C5)c34)cc2)c1` [compound 91, N-(4-methylpyridin-2-yl)-4-[(3-{[(3R)-1-(morpholine-4-carbonyl)piperidin-3-yl]amino}-1H-pyrazolo[3,4-b]pyridin-4-yl)oxy]benzamide] gave an IC50 [2] of less than 100 nM, an IC50 [3] of 1000 to 10000 nM and an IC50 [4] greater than 10000 nM.

In the case of `Cc1ccnc(NC(=O)c2ccc(Oc3ccnc4[nH]nc(N[C@@H]5CCCN(C(=O)C6CCN(C)CC6)C5)c34)cc2)c1` [compound 92, 4-[(3-{[(3R)-1-(1-methylpiperidine-4-carbonyl)piperidin-3-yl]amino}-1H-pyrazolo[3,4-b]pyridin-4-yl)oxy]-N-(4-methylpyridin-2-yl)benzamide], the IC50 [2] is reported as less than 100 nM, the IC50 [3] is reported as 100 to 1000 nM and the IC50 [4] is reported as 1000 to 10000 nM.

Molecule `Cc1cc(NC(=O)c2cccc(Nc3ccnc4[nH]nc(N[C@@H]5CCCN(C(=O)C6CC6)C5)c34)c2)ccc1C(C)C` [compound 127, 3-[(3-{[(3R)-1-cyclopropanecarbonylpiperidin-3-yl]amino}-1H-pyrazolo[3,4-b]pyridin-4-yl)amino]-N-[3-methyl-4-(propan-2-yl)phenyl]benzamide] has an IC50 [2] of 100 to 1000 nM, an IC50 [1] greater than 10000 nM and an IC50 [3] of 1000 to 10000 nM.

With `C=CC(=O)N1CCC[C@@H](Nc2n[nH]c3nccc(Nc4cccc(C(=O)Nc5ccc(C(C)C)c(C)c5)c4)c23)C1` [compound 129, N-[3-methyl-4-(propan-2-yl)phenyl]-3-[(3-{[(3R)-1-(prop-2-enoyl)piperidin-3-yl]amino}-1H-pyrazolo[3,4-b]pyridin-4-yl)amino]benzamide] the IC50 [2] was less than 100 nM, the IC50 [1] was less than 100 nM and the IC50 [3] was 1000 to 10000 nM.

Molecule `Cc1cc(NC(=O)c2cccc(Nc3ccnc4[nH]nc(N[C@@H]5CCCN(C(=O)c6ccc(F)cc6)C5)c34)c2)ccc1C(C)C` [compound 130, 3-[(3-{[(3R)-1-(4-fluorobenzoyl)piperidin-3-yl]amino}-1H-pyrazolo[3,4-b]pyridin-4-yl)amino]-N-[3-methyl-4-(propan-2-yl)phenyl]benzamide] has an IC50 [2] of 100 to 1000 nM, an IC50 [1] greater than 10000 nM and an IC50 [3] greater than 10000 nM.

With `CC(=O)N1CCC[C@@H](Nc2n[nH]c3nccc(Nc4cccc(C(=O)Nc5ccc(C(C)C)c(C)c5)c4)c23)C1` [compound 131, 3-[(3-{[(3R)-1-acetylpiperidin-3-yl]amino}-1H-pyrazolo[3,4-b]pyridin-4-yl)amino]-N-[3-methyl-4-(propan-2-yl)phenyl]benzamide] the IC50 [2] was 100 to 1000 nM, the IC50 [1] was greater than 10000 nM and the IC50 [3] was 1000 to 10000 nM.

`CCNC(=O)N1CCC[C@@H](Nc2n[nH]c3nccc(Oc4ccc(-c5nc6cccc(C)c6o5)cc4)c23)C1` [compound 182] was tested, and the IC50 [2] was 100 to 1000 nM, the IC50 [3] was greater than 10000 nM and the IC50 [4] was greater than 10000 nM.

`Cc1cccc2nc(-c3ccc(Oc4ccnc5[nH]nc(N[C@@H]6CCCN(C(=O)C7CCN(C)CC7)C6)c45)cc3)oc12` [compound 184] showed an IC50 [2] of 1000 to 10000 nM, an IC50 [3] greater than 10000 nM and an IC50 [4] greater than 10000 nM.

`CCNC(=O)N1CCCC(c2n[nH]c3nccc(Oc4ccc(C(=O)Nc5cc(C(F)(F)F)ccn5)cc4)c23)C1` (stereo not drawn) [compound 186] showed an IC50 [2] of 100 to 1000 nM, an IC50 [3] of 100 to 1000 nM and an IC50 [4] of 1000 to 10000 nM.

`CCNC(=O)N1CC[C@@H](Nc2n[nH]c3nccc(Oc4ccc(C(=O)Nc5ncc(C)s5)cc4)c23)C1` [compound 189] was tested, and the IC50 [2] was less than 100 nM, the IC50 [3] was 1000 to 10000 nM and the IC50 [4] was greater than 10000 nM.

With `CCC(=O)N1CC[C@@H](Nc2n[nH]c3nccc(Oc4ccc(C(=O)Nc5ncc(C)s5)cc4)c23)C1` [compound 190] the IC50 [2] was less than 100 nM, the IC50 [3] was 1000 to 10000 nM and the IC50 [4] was 1000 to 10000 nM.

Molecule `Cc1cnc(NC(=O)c2ccc(Oc3ccnc4[nH]nc(C5CCCN(C(=O)C6CC6)C5)c34)cc2)s1` (stereo not drawn) [compound 193] has an IC50 [2] of 100 to 1000 nM, an IC50 [3] greater than 10000 nM and an IC50 [4] of 1000 to 10000 nM.

Work on `CCNC(=O)N1CCCC(c2n[nH]c3nccc(Oc4ccc(C(=O)Nc5ncc(C)s5)cc4)c23)C1` (stereo not drawn) [compound 195, N-ethyl-3-(4-{4-[(5-methyl-1,3-thiazol-2-yl)carbamoyl]phenoxy}-1H-pyrazolo[3,4-b]pyridin-3-yl)piperidine-1-carboxamide] yielded an IC50 [2] of 100 to 1000 nM, an IC50 [3] of 1000 to 10000 nM and an IC50 [4] of 1000 to 10000 nM.

`CN1CCC(C(=O)N2CCC[C@@H](Nc3n[nH]c4nccc(Oc5ccc(-c6nc7ccccc7s6)cc5)c34)C2)CC1` [compound 197, (3R)-N-{4-[4-(1,3-benzothiazol-2-yl)phenoxy]-1H-pyrazolo[3,4-b]pyridin-3-yl}-1-(1-methylpiperidine-4-carbonyl)piperidin-3-amine] showed an IC50 [2] of 100 to 1000 nM, an IC50 [3] of 100 to 1000 nM and an IC50 [4] greater than 10000 nM.

For `Cc1ccnc(NC(=O)c2ccc(Oc3ccnc4[nH]nc(N[C@@H]5CCCN(C(=O)c6ncco6)C5)c34)cc2)c1` [compound 240, (R)—N-(4-methylpyridin-2-yl)-4-(3-(1-(oxazole-2-carbonyl)piperidin-3-ylamino)-1H-pyrazolo[3,4-b]pyridin-4-yloxy)benzamide], the IC50 [2] was less than 100 nM, the IC50 [1] was greater than 10000 nM and the IC50 [3] was 100 to 1000 nM.
